The record followed here is patent US5132401A (George Washington University, Office of Sponsored Research, priority 1989, dated 1992).

Structures are written as SMILES.

For this test, the system named is anterior pituitary cells. The test can be described thus: PRL assay: in vitro prolactin release from normal anterior pituitary cells, RIA. It counts as cell-based, Sprague-Dawley rats. Particulars: maximum stimulatory concentration of TRH (100 nM); FIG. 12. As to the method:
Inhibitory neurohormones and drugs were added during the final 20 minutes of the second rinse. […] After incubations, the medium is quickly removed and saved for radioimmunoassay (RIA).
PRL and GH were determined by standard RIA techniques (media diluted 1:30, 25-70 μl samples) using materials and protocols supplied by the NIDDK Rat Pituitary Hormone Distribution Program. Inter- and intra-assay variations for PRL and GH were less than 8% to 10%, respectively. All samples were assayed in duplicate, with results expressed in terms of NIDDK standards (rat PRL RP-2 and rat GH RP-1).

Take `NC(=O)[C@@H]1CCCN1C(=O)[C@H](Cc1cnc[nH]1)NC(=O)[C@@H]1CCC(=O)N1` [TRH, thyrotropin releasing hormone]: the “increase in PRL release compared to the control value” worked out at 480%.
